Source: ChEMBL document CHEMBL5500371, “Arginine and tryptophan-rich dendritic antimicrobial peptides that disrupt membranes for bacterial infection in vivo” (Eur J Med Chem, 2024)
Active and inactive are the calls of the source. The calls are words filed in the database; no cut-off is given here.

What was measured:
[1] = Therapeutic index, ratio of MHC10 for hemolytic activity in mouse erythrocytes preincubated with 10% mouse serum for 1 hr to MIC for Escherichia coli ATCC 25922 preincubated with 10% mouse serum for 1 hr; format: toxicity, cell-based; conditions: erythrocytes
[2] = Acute toxicity in male BALB/c mouse assessed as respiratory asthenia at 16.3 to 24.5 mg/kg, ip administered as single dose and measured after 60 mins; format: organism-based; conditions: in vivo, 1 h, dose 16.3-24.5 mg/kg
[3] = Therapeutic index, ratio of MHC10 for hemolytic activity in mouse erythrocytes preincubated with 10% mouse serum for 1 hr to MIC for Staphylococcus aureus ATCC 25923 preincubated with 10% mouse serum for 1 hr; format: toxicity, cell-based; conditions: erythrocytes
[4] = Systemic toxicity in male BALB/c mouse assessed as hemorrhage at 20.83 mg/kg, ip administered as single dose by H and E staining based analysis; format: organism-based; conditions: in vivo
[5] = Systemic toxicity in male BALB/c mouse assessed as pathological changes in heart at 20.83 mg/kg, ip administered as single dose by H and E staining based analysis; format: organism-based; conditions: in vivo
[6] = Systemic toxicity in male BALB/c mouse assessed as severe hepatocyte necrosis at 20.83 mg/kg, ip administered as single dose by H and E staining based analysis; format: organism-based; conditions: hepatocytes
[7] = Systemic toxicity in male BALB/c mouse assessed as marked alveolar cavity wrinkling at 20.83 mg/kg, ip administered as single dose by H and E staining based analysis; format: organism-based; conditions: in vivo
[8] = Acute toxicity in male BALB/c mouse assessed as convulsions at 16.3 to 24.5 mg/kg, ip administered as single dose and measured after 60 mins; format: organism-based; conditions: in vivo, 1 h, dose 16.3-24.5 mg/kg
[9] = Systemic toxicity in male BALB/c mouse assessed as inflammatory cell infiltration at 20.83 mg/kg, ip administered as single dose by H and E staining based analysis; format: organism-based; conditions: in vivo
[10] = Therapeutic index, ratio of MHC10 for hemolytic activity in mouse erythrocytes preincubated with 10% mouse serum for 6 hrs to MIC for Staphylococcus aureus ATCC 25923 preincubated with 10% mouse serum for 6 hrs; format: toxicity, cell-based; conditions: erythrocytes
[11] = Acute toxicity in male BALB/c mouse assessed as eye closure at 16.3 to 24.5 mg/kg, ip administered as single dose and measured after 60 mins; format: organism-based; conditions: in vivo, 1 h, dose 16.3-24.5 mg/kg
[12] = Acute toxicity in ip dosed male BALB/c mouse administered as single dose; format: organism-based; conditions: in vivo, ip
[13] = Acute toxicity in male BALB/c mouse assessed as mortality rate at 24.5 mg/kg, ip administered as single dose and measured after 120 mins relative to control; format: organism-based; conditions: in vivo, 2 h
Erythrocyte = assay: Hemolytic activity in mouse erythrocytes assessed as 10% hemolysis incubated for 1 hr by absorbance based analysis; format: toxicity, cell-based
[14] = Acute toxicity in male BALB/c mouse assessed as animal death at 16.3 to 24.5 mg/kg, ip administered as single dose and measured after 60 mins; format: organism-based; conditions: in vivo, 1 h, dose 16.3-24.5 mg/kg
[15] = Therapeutic index, ratio of MHC10 for hemolytic activity in mouse erythrocytes preincubated with 10% mouse serum for 6 hrs to MIC for Escherichia coli ATCC 25922 preincubated with 10% mouse serum for 6 hrs; format: toxicity, cell-based; conditions: erythrocytes
HEK-293T = assay: Cytotoxicity against HEK293T cells assessed as cell death measured after 1 hr by resazurin dye based analysis; format: toxicity; conditions: human, hek-293t, 1 h
Escherichia coli [16] = assay: Resistant development in Escherichia coli assessed as increase in MIC at sub-MIC measured after 20 passages; format: functional, organism-based
Staphylococcus aureus = assay: Drug resistance, ratio of MIC for Staphylococcus aureus after 14 to 19 passages to MIC for Staphylococcus aureus after initial exposure; format: functional, organism-based
Escherichia coli [17] = assay: Drug resistance, ratio of MIC for Escherichia coli after 14 to 19 passages to MIC for Escherichia coli after initial exposure; format: functional, organism-based

For POLYMYXIN B, the TI [1] was 1, the Activity [2] was “Toxic” and the TI [3] was 1. The Activity [4] was “Toxic”, the Activity [5] was “Non-Toxic” and the Activity [6] was “Toxic”. The Activity [7] was “Toxic”, the Activity [8] was “Toxic” and the Activity [9] was “Toxic”. The TI [10] was 1, the Activity [11] was “Toxic” and the LD50 [12] was 20.83 mg/kg. For the same sequence, the Activity [13] was 100%, the MHC10 (Erythrocyte) was > 256 µM and the Activity [14] was “Toxic”. For the same sequence, the TI [15] was 0.5 and the CC50 (HEK-293T) was > 128 µM.
For GENTAMICIN, the Activity (Escherichia coli [16]) was “Active”, the Ratio (Staphylococcus aureus) was 32 and the Ratio (Escherichia coli [17]) was 32.
